Each structure is given as a SMILES string.

One experiment concerns the target cdc2/cyclinB. In words: cdc2/cyclinB kinase inhibition. It is filed as biochemical.
Details: not given
The IC50 is the concentration that inhibits the measured activity by half. The compound `COc1ccc(CNc2nc(N(CC(C)O)CC(C)O)nc3c2ncn3C(C)C)cc1` (stereo not shown) [NG-16] returned an IC50 of 240 nM.
In turn, `COc1ccc(CNc2nc(N[C@@H](CO)CC(C)C)nc3c2ncn3C(C)C)cc1` [NG-36] yielded an IC50 of 100 nM.
Same read-out and setting: to `CC(C)n1cnc2c(Nc3ccccc3)nc(NCCO)nc21` [NG-42] belongs 4300 nM.
`CC(C)n1cnc2c(Nc3ccccc3Cl)nc(NCCO)nc21` [NG-43] had an IC50 of 4300 nM.
Compound `CC(C)n1cnc2c(Nc3cccc(Br)c3)nc(NCCO)nc21` [NG-45] registered an IC50 of 270 nM.
Regarding `COc1ccccc1Nc1nc(NCCO)nc2c1ncn2C(C)C` [NG-46], it took 9000 nM to reach half-maximal inhibition (IC50).
Still for that read-out and setting: for `CC(C)n1cnc2c(Nc3ccc4ccccc4c3)nc(NCCO)nc21` [NG-47] the value was 430 nM; for `COc1ccc(CNc2nc(N(CCO)Cc3ccccc3)nc3c2ncn3C(C)C)cc1` [NG-49], 2800 nM.
For `COc1ccc(CNc2nc(NCC(O)c3ccccc3)nc3c2ncn3C(C)C)cc1` (stereo not shown) [NG-50], the IC50 was determined as 2800 nM.
Still for that read-out and setting: to `CC(C)n1cnc2c(Nc3cccc(C(F)(F)F)c3)nc(NCCO)nc21` [NG-51] belongs 420 nM.
Same read-out and setting: to `CC(C)n1cnc2c(Nc3cccc(Cl)c3)nc(NCCO)nc21` [NG-52] belongs 220 nM; to `CC(C)n1cnc2c(Nc3ccccc3C(F)(F)F)nc(NCCO)nc21` [NG-53], 10000 nM; to `CC(C)n1cnc2c(Nc3ccc(Cl)cc3Cl)nc(NCCO)nc21` [NG-54], 2700 nM.
The same measure, in the same setting: for `CC(C)C(CO)Nc1nc(Nc2cc(Cl)cc(Cl)c2)c2ncn(C(C)C)c2n1` (stereo not shown) [NG-57] the value was 400 nM; for `CC(C)n1cnc2c(Nc3cccc(Cl)c3)nc(N[C@H](CO)c3ccccc3)nc21` [NG-59], 800 nM; for `CC(C)n1cnc2c(Nc3cccc(Cl)c3)nc(N[C@H](CO)C(C)(C)C)nc21` [NG-61], 2300 nM.
`CCC(C)[C@@H](CO)Nc1nc(Nc2cccc(Cl)c2)c2ncn(C(C)C)c2n1` (stereo partly shown) [NG-62] came in with an IC50 of 500 nM.
For the compound `CC(C)n1cnc2c(Nc3cccc(F)c3)nc(NCCO)nc21` [NG-65], it took 400 nM to reach half-maximal inhibition (IC50).
The same measure, in the same setting: for `CC(C)[C@H](CO)Nc1nc(Nc2ccc(O)c(C(=O)O)c2)c2ncn(C(C)C)c2n1` [NG-94] the value was around 100 nM; for `CC(C)[C@H](CO)Nc1nc(Nc2ccc(Cl)c(C(=O)O)c2)c2ncn(C(C)C)c2n1` [NG-96], around 30 nM; for `CC(C)[C@H](CO)Nc1nc(Nc2cc(N)cc(Cl)c2)c2ncn(C(C)C)c2n1` [NG-97], 30 nM.
On the same count and under the same terms, for `CC(C)[C@H](CO)Nc1nc(Nc2ccc(Cl)c(N)c2)c2ncn(C(C)C)c2n1` [NG-98] the value was 30 nM.

For the next experiment, the target named is erk1 (Homo sapiens, UniProt P27361). The experiment in a line: erk1 kinase inhibition. It counts as biochemical. The conditions noted are these: read-out: IC50 (additional kinases) erk1.
Sequence of erk1 (P27361 whole entry, species assumed): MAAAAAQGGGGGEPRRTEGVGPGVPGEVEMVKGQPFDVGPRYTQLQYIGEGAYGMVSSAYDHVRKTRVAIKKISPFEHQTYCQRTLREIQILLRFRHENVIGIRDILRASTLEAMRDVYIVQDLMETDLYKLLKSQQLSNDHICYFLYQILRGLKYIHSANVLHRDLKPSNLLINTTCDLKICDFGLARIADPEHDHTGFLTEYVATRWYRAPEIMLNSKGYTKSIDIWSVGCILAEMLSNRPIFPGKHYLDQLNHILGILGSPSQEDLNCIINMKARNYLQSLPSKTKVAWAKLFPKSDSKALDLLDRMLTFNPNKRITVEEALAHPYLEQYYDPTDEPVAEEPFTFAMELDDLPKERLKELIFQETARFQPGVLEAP
On to `COc1ccc(CNc2nc(N(CC(C)O)CC(C)O)nc3c2ncn3C(C)C)cc1` (stereo not shown) [NG-16], for which the IC50 came out at 50000 nM.
Still for that read-out and setting: for `CC[C@H](CO)Nc1nc(NCc2ccc(OC)cc2)c2ncn(C(C)C)c2n1` [NG-33] the value was above 10000 nM.
`COc1ccc(CNc2nc(N[C@@H](CO)CC(C)C)nc3c2ncn3C(C)C)cc1` [NG-36]: the IC50 is above 10000 nM.
